Laboratory results: US9962369B2, “Methods and compositions for transdermal delivery” (SPRAYABLE HOLDINGS, INC., priority 2014, dated 2018)

Test: Transdermal delivery of melatonin: plasma level of melatonin after applying composition to skin of a subject
Settings: human, plasma, topical, Plasma level of melatonin; for concentration at 1 h: 1 hr after transdermal administration; for concentration at 2 h: 2 hr after transdermal administration; for concentration at 4 h: 4 hr after transdermal administration; for concentration at 8 h: 8 hr after transdermal administration; for concentration at 0 h: 0 hr after transdermal administration
[1] = 3 mg, salt of tryptophan isopropyl ester, A− = Cl^−, 247.52 mM, 0.30 mL applied
[2] = 3 mg, salt of tryptophan isopropyl ester, A− = F^−, 262.85 mM, 0.30 mL applied
[3] = 3 mg, salt of tryptophan isopropyl ester, A− = I^−, 187.04 mM, 0.30 mL applied
[4] = 3 mg, salt of tryptophan isopropyl ester, A− = Lactate ion, 208.11 mM, 0.30 mL applied
[5] = 0.3 mL of 1% melatonin in water, Tryptophan isopropyl ester hydrochloride 247.52 mM, 0.3 mL applied to skin
[6] = 0.3 mL of 1% melatonin in water, salt of tyrosine isopropyl ester, A− = Benzoate ion, 202.65 mM, 0.30 mL applied
[7] = 0.3 mL of 1% melatonin in water, salt of tyrosine isopropyl ester, A− = Lactate ion, 221.97 mM, 0.30 mL applied
[8] = 2 mL of […] melatonin suspension in water, Table 21 control, A− N/A, helper esters 0 mM, 2.0 mL applied
[9] = 2 mL of […] melatonin suspension, Helper esters: None (0 mM), 2.0 mL applied to skin
[10] = 2-(Dibutylamino)ethyl 2-acetoxybenzoate hydrochloride 188.23 mM, 0.375 mL applied to skin
[11] = 2-(Diethylamino)ethyl 2-acetoxybenzoate hydrochloride 221.69 mM, 0.375 mL applied to skin
[12] = 3-(Diethylamino)propyl 2-acetoxybenzoate hydrochloride 212.24 mM, 0.375 mL applied to skin
[13] = 6-(Dimethylamino)hexyl 2-acetoxybenzoate hydrochloride 203.56 mM, 0.375 mL applied to skin
[14] = Proline hexyl ester hydrochloride 296.94 mM, 0.60 mL applied to skin
[15] = Proline isopropyl ester hydrochloride 361.41 mM, 0.60 mL applied to skin
[16] = Proline methyl ester hydrochloride 422.66 mM, 0.60 mL applied to skin
[17] = salt of tryptophan isopropyl ester, A− = Lactate ion, 208.11 mM, 0.30 mL applied
[18] = salt of tyrosine isopropyl ester, A− = AcO^−, 245.0 mM, 0.30 mL applied
[19] = salt of tyrosine isopropyl ester, A− = Benzoate ion, 202.65 mM, 0.30 mL applied
[20] = salt of tyrosine isopropyl ester, A− = Br^−, 230.16 mM, 0.30 mL applied
[21] = salt of tyrosine isopropyl ester, A− = Citrate ion, 168.49 mM, 0.30 mL applied
[22] = salt of tyrosine isopropyl ester, A− = Cl^−, 269.51 mM, 0.30 mL applied
[23] = salt of tyrosine isopropyl ester, A− = F^−, 287.91 mM, 0.30 mL applied
[24] = salt of tyrosine isopropyl ester, A− = I^−, 199.43 mM, 0.30 mL applied

concentration at 1 h [1]: 2.5 ng/mL
concentration at 2 h [1]: 2.8 ng/mL
concentration at 4 h [1]: 2.7 ng/mL
concentration at 8 h [1]: 2.5 ng/mL
concentration at 0 h [2]: 0 ng/mL
concentration at 1 h [2]: 2.6 ng/mL
concentration at 2 h [2]: 2.8 ng/mL
concentration at 4 h [2]: 2.9 ng/mL
concentration at 8 h [2]: 2.6 ng/mL
concentration at 0 h [3]: 0 ng/mL
concentration at 1 h [3]: 2.3 ng/mL
concentration at 2 h [3]: 2.3 ng/mL
concentration at 4 h [3]: 2.2 ng/mL
concentration at 8 h [3]: 2.1 ng/mL
concentration at 0 h [4]: 0 ng/mL
concentration at 1 h [4]: 1.9 ng/mL
concentration at 0 h [5]: 0 ng/mL
concentration at 1 h [5]: 2.5 ng/mL
concentration at 2 h [6]: 2 ng/mL
concentration at 4 h [6]: 1.8 ng/mL
concentration at 8 h [6]: 1.7 ng/mL
concentration at 0 h [7]: 0 ng/mL
concentration at 1 h [7]: 1.7 ng/mL
concentration at 2 h [7]: 1.8 ng/mL
concentration at 4 h [7]: 2 ng/mL
concentration at 8 h [7]: 1.6 ng/mL
concentration at 0 h [8]: 0 ng/mL
concentration at 1 h [8]: 0.1 ng/mL
concentration at 2 h [8]: 0.1 ng/mL
concentration at 4 h [8]: 0.1 ng/mL
concentration at 8 h [8]: 0.1 ng/mL
concentration at 4 h [9]: 0.1 ng/mL
concentration at 8 h [9]: 0.1 ng/mL
concentration at 0 h [14]: 0 ng/mL
concentration at 1 h [14]: 1.1 ng/mL
concentration at 2 h [14]: 1.2 ng/mL
concentration at 4 h [14]: 1.3 ng/mL
concentration at 8 h [14]: 1.2 ng/mL
concentration at 0 h [15]: 0 ng/mL
concentration at 1 h [15]: 1.4 ng/mL
concentration at 2 h [15]: 1.4 ng/mL
concentration at 4 h [15]: 1.5 ng/mL
concentration at 8 h [15]: 1.4 ng/mL
concentration at 0 h [16]: 0 ng/mL
concentration at 1 h [16]: 1.2 ng/mL
concentration at 2 h [16]: 1.4 ng/mL
concentration at 4 h [16]: 1.3 ng/mL
concentration at 8 h [16]: 1.3 ng/mL
concentration at 2 h [17]: 2 ng/mL
concentration at 4 h [17]: 1.9 ng/mL
concentration at 8 h [17]: 1.8 ng/mL
concentration at 0 h [18]: 0 ng/mL
concentration at 1 h [18]: 1.8 ng/mL
concentration at 2 h [18]: 2 ng/mL
concentration at 4 h [18]: 1.9 ng/mL
concentration at 8 h [18]: 21.8 ng/mL
concentration at 0 h [19]: 0 ng/mL
concentration at 1 h [19]: 1.6 ng/mL
concentration at 0 h [20]: 0 ng/mL
concentration at 1 h [20]: 2.3 ng/mL
concentration at 2 h [20]: 2.7 ng/mL
concentration at 4 h [20]: 2.7 ng/mL
concentration at 8 h [20]: 2.6 ng/mL
concentration at 0 h [21]: 0 ng/mL
concentration at 1 h [21]: 2 ng/mL
concentration at 2 h [21]: 2.3 ng/mL
concentration at 4 h [21]: 2.2 ng/mL
concentration at 8 h [21]: 2 ng/mL
concentration at 0 h [22]: 0 ng/mL
concentration at 1 h [22]: 2.1 ng/mL
concentration at 2 h [22]: 2.9 ng/mL
concentration at 4 h [22]: 2.7 ng/mL
concentration at 8 h [22]: 2.8 ng/mL
concentration at 0 h [23]: 0 ng/mL
concentration at 1 h [23]: 2.2 ng/mL
concentration at 2 h [23]: 2.8 ng/mL
concentration at 4 h [23]: 2.8 ng/mL
concentration at 8 h [23]: 2.5 ng/mL
concentration at 0 h [24]: 0 ng/mL
concentration at 1 h [24]: 2.1 ng/mL
concentration at 2 h [24]: 2.3 ng/mL
concentration at 4 h [24]: 2.3 ng/mL
concentration at 8 h [24]: 2.1 ng/mL
SMILES: COc1ccc2[nH]cc(CCNC(C)=O)c2c1 [Melatonin]
concentration at 0 h [10]: 0 ng/mL
concentration at 1 h [10]: 1.6 ng/mL
concentration at 2 h [10]: 1.9 ng/mL
concentration at 4 h [10]: 1.8 ng/mL
concentration at 8 h [10]: 1.6 ng/mL
concentration at 0 h [11]: 0 ng/mL
concentration at 1 h [11]: 2.3 ng/mL
concentration at 2 h [11]: 2.6 ng/mL
concentration at 4 h [11]: 2.7 ng/mL
concentration at 8 h [11]: 2.4 ng/mL
concentration at 0 h [12]: 0 ng/mL
concentration at 1 h [12]: 2.1 ng/mL
concentration at 2 h [12]: 2.2 ng/mL
concentration at 4 h [12]: 2.3 ng/mL
concentration at 8 h [12]: 2.1 ng/mL
concentration at 0 h [13]: 0 ng/mL
concentration at 1 h [13]: 1.7 ng/mL
concentration at 2 h [13]: 2.1 ng/mL
concentration at 4 h [13]: 2.1 ng/mL
concentration at 8 h [13]: 1.9 ng/mL
